Values joined by “and” are separate entries in the source; they are usually repeats but may differ in a detail not shown here. Identical values can stand only once. Like-named read-outs stand apart in the source and are kept apart here.
Columns and labels:
[1] = system: methyltransferase activity in rod outer segments; details: cited from earlier work; for Ki: previous study, rod outer segments
[2] = molecular target: T1, recombinant human Icmt (Homo sapiens, UniProt O60725); experiment: Icmt assay: [3H]methyl incorporation into BFC, Sf9 membranes containing recombinant human Icmt; assay type: biochemical; details: for Km: substrate of recombinant human Icmt, in vitro methylation assay, read-out: Km (apparent) as substrate
T1 construct: a recombinant baculovirus containing the entire open reading frame of the human Icmt cDNA; made in house; host or cells: Sf9 insect cells (baculovirus); membrane fraction used
T1 sequence (O60725 whole entry): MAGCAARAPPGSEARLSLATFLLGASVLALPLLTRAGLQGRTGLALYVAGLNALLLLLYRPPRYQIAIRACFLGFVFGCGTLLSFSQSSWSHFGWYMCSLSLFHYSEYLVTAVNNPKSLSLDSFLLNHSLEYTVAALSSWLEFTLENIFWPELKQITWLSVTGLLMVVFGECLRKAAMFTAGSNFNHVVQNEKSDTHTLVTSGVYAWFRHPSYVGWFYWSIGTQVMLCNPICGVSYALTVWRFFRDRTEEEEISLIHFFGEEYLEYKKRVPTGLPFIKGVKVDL
Description: Streptavidin-sepharose beads were purchased from Amersham, trans, trans-farnesyl bromide, biotin N-hydroxysuccinimide ester and S-(5'-adenosyl)-L-methionine p-toluenesulfonate were purchased from Sigma-Aldrich, L-cysteine was purchased from Novabiochem, [^3H-methyl]-S-adenosyl-L-methionine was purchased from Perkin Elmer Life Sciences, farnesylthioacetic acid (FTA) was purchased from Biomol, S-(5'-adenosyl)-L-homocysteine was purchased from Fluka. The N-acetyl-S-farnesylcysteine methyl ester (AFCME) and N-acetyl-S-farnesylcysteine methyl amide (AFCMA) were synthesized as previously described ([24-26]). Recombinant human Icmt was prepared by infection of Sf9 cells with a recombinant baculovirus containing the entire open reading frame of the human Icmt cDNA as described. The membrane fraction of the infected Sf9 cells, isolated as described for studies with the Rce1 protease, was used as the source of Icmt for all studies described.
The assay developed for Icmt activity involved quantitation of [^3H]methyl incorporation into the small molecule substrate BFC. For the standard assay, reactions were initiated by addition of Sf9 membranes containing Icmt (0.5 μg protein) to an assay mixture containing BFC (4 μM) and [^3H]AdoMet (5 μM, 1.3 Ci/mmol) in100 mM Hepes, pH 7.4 and 5 mM MgCl2 in a total volume of 45 μl. Reactions were carried out for 20 min at 37°C, whereupon they were terminated by addition of 5 μl of 10% Tween 20. Following termination, streptavidin beads (10 μl of packed beads suspended in 500 μl of 20 mM NaH2PO4, pH 7.4, contaning 150 mM NaCl) were added, and the mixtures mixed by gentle agitation overnight at 4°C. The beads were harvested by centrifugation in a tabletop microcentrifuge at 10,000 rpm for 5 min and washed 3 times with 500 μl of 20 mM NaH2PO4, pH 7.4, containing 150 mM NaCl. The beads were then suspended in 100 μl of the same buffer, transferred to scintillation vials, and radioactivity determined. For the kinetic analyses, the concentrations of substrates (AdoMet, BFC) or additional ligands (eg. AdoHcy, AFCME, etc) were varied as detailed in the legends to the appropriate figures.

[3] = varied AdoMet, fixed BFC 4 μM, read-out: Ki with respect to AdoMet
[4] = varied BFC, fixed AdoMet 5 μM, read-out: Ki with respect to BFC

Question: With `CC(=O)N[C@@H](CSCC=C(C)CCC=C(C)CCC=C(C)C)C(=O)O` [AFC, N-acetyl-L-farnesylcysteine] as the compound, how does the Km ([1]; read-out: apparent Km as substrate) read?
Answer: 20 µM

Question: And the “apparent Km relative to Km of BFC” value ([2]; AFC Km (ref 20, 31) versus BFC Km 2.1 μM)?
Answer: 10 fold

Question: With `CNC(=O)[C@H](CSCC=C(C)CCC=C(C)CCC=C(C)C)NC(C)=O` [AFCMA, N-acetyl-S-farnesyl-L-cysteine methyl amide] as the compound, how does the “product inhibition results compared with AFCME” value ([2]; second prenylcysteine-type product analog, data not shown) read?
Answer: essentially identical results

Question: Which Ki ([1]; compared with the value with respect to BFC, read-out: inhibition constant with respect to prenylcysteine substrate) does the source give for `COC(=O)[C@H](CSCC=C(C)CCC=C(C)CCC=C(C)C)NC(C)=O` [AFCME, N-acetyl-S-farnesyl-L-cysteine methylester] here?
Answer: 41000 nM

Question: And the Ki ([1]; read-out: inhibition constant with respect to AdoMet)?
Answer: 73000 nM

Question: What about the “type of inhibition with respect to AdoMet” value ([2]; varied AdoMet, fixed BFC 4 μM) of the same compound?
Answer: Mixed-type

Question: And the Ki [2, 3]?
Answer: 2400 nM and 2430 nM

Question: And the “type of inhibition with respect to BFC” value ([2]; varied BFC, fixed AdoMet 5 μM)?
Answer: Noncompetitive

Question: What about the Ki [2, 4] of the same compound?
Answer: 1900 nM and 1910 nM

Question: Which “type of inhibition with respect to AdoMet” value ([2]; varied AdoMet, fixed BFC 4 μM) does the source give for `Nc1ncnc2c1ncn2[C@@H]1O[C@H](CSCC[C@H](N)C(=O)O)[C@@H](O)[C@H]1O` [AdoHcy, S-adenosyl-L-homocysteine] here?
Answer: Competitive

Question: What about the Ki [2, 3] of the same compound?
Answer: 3500 nM and 3540 nM

Question: What about the “type of inhibition with respect to BFC” value ([2]; varied BFC, fixed AdoMet 5 μM) of the same compound?
Answer: Competitive

Question: And the Ki [2, 4]?
Answer: 3600 nM and 3590 nM

Question: Which Km [2] does the source give for `C[S+](CC[C@H](N)C(=O)[O-])C[C@H]1O[C@@H](n2cnc3c(N)ncnc32)[C@H](O)[C@@H]1O` (stereo partly drawn) [AdoMet, S-adenosyl-L-methionine] here?
Answer: 7.8 µM

Question: With `CC(C)=CCC/C(C)=C/CC/C(C)=C/CSC[C@H](NC(=O)CCCCC1SCC2NC(=O)NC21)C(=O)O` (stereo partly drawn) [BFC, biotin-S-farnesyl-L-cysteine] as the compound, how does the Km [2] read?
Answer: 2.1 µM

Question: With `CC(C)=CCC/C(C)=C/CC/C(C)=C/CSCC(=O)O` [FTA, S-farnesylthioacetic acid] as the compound, how does the “type of inhibition with respect to AdoMet” value ([2]; varied AdoMet, fixed BFC 4 μM) read?
Answer: Uncompetitive

Question: And the “type of inhibition with respect to BFC” value ([2]; varied BFC, fixed AdoMet 5 μM)?
Answer: Competitive

Question: And the Ki [2, 4]?
Answer: 1200 nM and 1170 nM
